Assay results published in patent publication US6355799B1, “Substituted benzene compounds, process for their preparation, and herbicidal and defoliant compositions containing them” (ISK Americas Incorporated, priority 1997, dated 2002).

Key:
Format in all cases: in vivo
[1] = test system: upland rice (Oryza sp., var. Tebonnet, RICE); assay: Post-emerge test, crop safety; conditions: rating scale 0-100 (0 no damage, 100 complete death), 14 days after application
In short: (§1)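 Compounds in acetone were track-sprayed at 187 l/ha, 15–1000 g ai/ha, onto sandy loam pots. Pre-emerge seeds were sown one day before spraying, with surface watering afterwards. Post-emerge plants were at the 2–3 leaf stage and sprayed with 0.25% v/v non-ionic surfactant. Injury was rated 0–100 at 14 days.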

[2] = test system: field corn (Zea mays L., var. Dekalb 535, CORN); assay: Post-emerge test, crop safety; conditions: rating scale 0-100 (0 no damage, 100 complete death), 14 days after application
In short: as §1

[3] = test system: barnyardgrass (Echinochloa crus-galli, ECHCG); assay: Post-emerge test, greenhouse herbicide activity screening; conditions: rating scale 0-100 (0 no damage, 100 complete death), 14 days after application
In short: (§2)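 Each test used a mechanized track sprayer delivering 187 l/ha of acetone solution at 15–1000 g ai/ha. Post-emerge foliage at 2–3 leaves was treated with added 0.25% v/v non-ionic surfactant and bottom-watered only. Injury was assessed on day 14, where 100 means total kill.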

[4] = test system: large crabgrass (Digitaria sanguinalis, DIGSA); assay: as above; conditions: rating scale 0-100 (0 no damage, 100 complete death), 14 days after application
In short: as §2

[5] = test system: redroot pigweed (Amaranthus retroflexus, AMARE); assay: as above; conditions: rating scale 0-100 (0 no damage, 100 complete death), 14 days after application
In short: as §2

[6] = test system: lambsquarters (Chenopodium album, CHEAL); assay: as above; conditions: rating scale 0-100 (0 no damage, 100 complete death), 14 days after application
In short: as §2

[7] = test system: green foxtail (Setaria viridis, SETVI); assay: as above; conditions: rating scale 0-100 (0 no damage, 100 complete death), 14 days after application
In short: as §2

[8] = test system: sicklepod (Cassia obtusifolia, CASOB); assay: as above; conditions: rating scale 0-100 (0 no damage, 100 complete death), 14 days after application
In short: as §2

[9] = test system: velvetleaf (Abutilon theophrasti, ABUTH); assay: as above; conditions: rating scale 0-100 (0 no damage, 100 complete death), 14 days after application
In short: as §2

[10] = test system: ivyleaf morningglory (Ipomoea hederacea, IPOHE); assay: as above; conditions: rating scale 0-100 (0 no damage, 100 complete death), 14 days after application
In short: as §2

[11] = test system: johnsongrass (Sorghum halepense, SORHA); assay: as above; conditions: rating scale 0-100 (0 no damage, 100 complete death), 14 days after application
In short: as §2

[12] = test system: common ragweed (Ambrosia artemisizfolia L., AMBEL); assay: as above; conditions: rating scale 0-100 (0 no damage, 100 complete death), 14 days after application
In short: as §2

[13] = test system: upland rice (Oryza sp., var. Tebonnet, RICE); assay: Pre-emerge test, crop safety; conditions: rating scale 0-100, 14 days after application
In short: (§3)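 Herbicidal damage is scored 0 (none) to 100 (complete plant death) two weeks after a simulated field spray. Rates span 15–1000 g ai/ha, delivered in acetone at 187 l/ha. For post-emergence treatments, plants have 2–3 leaves and the spray carries 0.25% v/v non-ionic surfactant.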

[14] = test system: field corn (Zea mays L., var. Dekalb 535, CORN); assay: Pre-emerge test, crop safety; conditions: rating scale 0-100, 14 days after application
In short: as §3

[15] = test system: redroot pigweed (Amaranthus retroflexus, AMARE); assay: Pre-emerge test, greenhouse herbicide activity screening; conditions: rating scale 0-100, 14 days after application
In short: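 Visual ratings on a 0-100 scale (0 no damage, 100 all plants dead) were taken at 14 days after treatment. Rates of 15-1000 g ai/ha in acetone, 187 l/ha, were sprayed onto soil one day after planting (pre-emerge) or onto 2-3 leaf plants with 0.25% v/v surfactant (post-emerge).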

[16] = test system: barnyardgrass (Echinochloa crus-galli, ECHCG); assay: as above; conditions: rating scale 0-100, 14 days after application
In short: as §1

[17] = test system: large crabgrass (Digitaria sanguinalis, DIGSA); assay: as above; conditions: rating scale 0-100, 14 days after application
In short: as §1

[18] = test system: lambsquarters (Chenopodium album, CHEAL); assay: as above; conditions: rating scale 0-100, 14 days after application
In short: as §1

[19] = test system: green foxtail (Setaria viridis, SETVI); assay: as above; conditions: rating scale 0-100, 14 days after application
In short: as §1

[20] = test system: sicklepod (Cassia obtusifolia, CASOB); assay: as above; conditions: rating scale 0-100, 14 days after application
In short: as §1

[21] = test system: velvetleaf (Abutilon theophrasti, ABUTH); assay: as above; conditions: rating scale 0-100, 14 days after application
In short: as §1

[22] = test system: ivyleaf morningglory (Ipomoea hederacea, IPOHE); assay: as above; conditions: rating scale 0-100, 14 days after application
In short: as §1

[23] = test system: johnsongrass (Sorghum halepense, SORHA); assay: as above; conditions: rating scale 0-100, 14 days after application
In short: as §1

[24] = test system: common ragweed (Ambrosia artemisizfolia L., AMBEL); assay: as above; conditions: rating scale 0-100, 14 days after application
In short: as §1

CCCCOC(=O)C(C)(Cl)Cc1c(OC)c(Cl)cc(F)c1-n1c(=O)cc(C(F)(F)F)n(C)c1=O (stereo not drawn) [14-36]
90: Pre-emerge herbicidal activity, phytotoxicity rating ECHCG ([16]; 250 g ai/ha)
35: Post-emerge phytotoxicity rating RICE (crop damage) ([1]; Rate 63 g ai/ha)
20: Post-emerge Herbicidal Activity, phytotoxicity rating CASOB ([8]; Rate 63 g ai/ha) | Post-emerge Herbicidal Activity, phytotoxicity rating SORHA ([11]; Rate 63 g ai/ha)
65: Post-emerge Herbicidal Activity, phytotoxicity rating DIGSA ([4]; Rate 250 g ai/ha)
30: Post-emerge Herbicidal Activity, phytotoxicity rating IPOHE ([10]; Rate 63 g ai/ha) | Pre-emerge herbicidal activity, phytotoxicity rating DIGSA ([17]; 63 g ai/ha) | Pre-emerge herbicidal activity, phytotoxicity rating SORHA ([23]; 250 g ai/ha)
0: Pre-emerge phytotoxicity rating, crop damage CORN ([14]; 63 g ai/ha) | Pre-emerge herbicidal activity, phytotoxicity rating ECHCG ([16]; 63 g ai/ha) | Pre-emerge herbicidal activity, phytotoxicity rating CASOB ([20]; 63 g ai/ha) | Pre-emerge herbicidal activity, phytotoxicity rating CASOB ([20]; 250 g ai/ha) | Pre-emerge herbicidal activity, phytotoxicity rating IPOHE ([22]; 63 g ai/ha) | Pre-emerge herbicidal activity, phytotoxicity rating IPOHE ([22]; 250 g ai/ha) | Pre-emerge herbicidal activity, phytotoxicity rating SORHA ([23]; 63 g ai/ha)
95: Post-emerge phytotoxicity rating CORN (crop damage) ([2]; Rate 63 g ai/ha) | Post-emerge phytotoxicity rating CORN (crop damage) ([2]; Rate 250 g ai/ha) | Post-emerge Herbicidal Activity, phytotoxicity rating ABUTH ([9]; Rate 63 g ai/ha) | Post-emerge Herbicidal Activity, phytotoxicity rating AMBEL ([12]; Rate 250 g ai/ha) | Pre-emerge herbicidal activity, phytotoxicity rating DIGSA ([17]; 250 g ai/ha) | Pre-emerge herbicidal activity, phytotoxicity rating SETVI ([19]; 250 g ai/ha)
60: Post-emerge phytotoxicity rating RICE (crop damage) ([1]; Rate 250 g ai/ha)
99: Post-emerge Herbicidal Activity, phytotoxicity rating ECHCG ([3]; Rate 63 g ai/ha) | Post-emerge Herbicidal Activity, phytotoxicity rating CHEAL ([6]; Rate 63 g ai/ha) | Post-emerge Herbicidal Activity, phytotoxicity rating SETVI ([7]; Rate 250 g ai/ha)
70: Post-emerge Herbicidal Activity, phytotoxicity rating IPOHE ([10]; Rate 250 g ai/ha) | Pre-emerge phytotoxicity rating, crop damage RICE ([13]; 250 g ai/ha)
10: Pre-emerge phytotoxicity rating, crop damage RICE ([13]; 63 g ai/ha) | Pre-emerge phytotoxicity rating, crop damage CORN ([14]; 250 g ai/ha) | Pre-emerge herbicidal activity, phytotoxicity rating SETVI ([19]; 63 g ai/ha) | Pre-emerge herbicidal activity, phytotoxicity rating AMBEL ([24]; 63 g ai/ha)
100: Post-emerge Herbicidal Activity, phytotoxicity rating ECHCG ([3]; Rate 250 g ai/ha) | Post-emerge Herbicidal Activity, phytotoxicity rating AMARE ([5]; Rate 63 g ai/ha) | Post-emerge Herbicidal Activity, phytotoxicity rating AMARE ([5]; Rate 250 g ai/ha) | Post-emerge Herbicidal Activity, phytotoxicity rating CHEAL ([6]; Rate 250 g ai/ha) | Post-emerge Herbicidal Activity, phytotoxicity rating ABUTH ([9]; Rate 250 g ai/ha) | Post-emerge Herbicidal Activity, phytotoxicity rating AMBEL ([12]; Rate 63 g ai/ha) | Pre-emerge herbicidal activity, phytotoxicity rating AMARE ([15]; 250 g ai/ha) | Pre-emerge herbicidal activity, phytotoxicity rating CHEAL ([18]; 250 g ai/ha) | Pre-emerge herbicidal activity, phytotoxicity rating ABUTH ([21]; 63 g ai/ha) | Pre-emerge herbicidal activity, phytotoxicity rating ABUTH ([21]; 250 g ai/ha)
40: Post-emerge Herbicidal Activity, phytotoxicity rating DIGSA ([4]; Rate 63 g ai/ha) | Post-emerge Herbicidal Activity, phytotoxicity rating CASOB ([8]; Rate 250 g ai/ha) | Post-emerge Herbicidal Activity, phytotoxicity rating SORHA ([11]; Rate 250 g ai/ha)
75: Pre-emerge herbicidal activity, phytotoxicity rating AMARE ([15]; 63 g ai/ha) | Pre-emerge herbicidal activity, phytotoxicity rating CHEAL ([18]; 63 g ai/ha)
85: Post-emerge Herbicidal Activity, phytotoxicity rating SETVI ([7]; Rate 63 g ai/ha)
80: Pre-emerge herbicidal activity, phytotoxicity rating AMBEL ([24]; 250 g ai/ha)
